In PMC4950319, “Kinetic and structural characterization of amyloid‐β peptide hydrolysis by human angiotensin‐1‐converting enzyme” (The Febs Journal, 2016):
Several values for one entry are separate records, joined by “and”; a condition that tells them apart may be missing. Identical values can stand only once. Entries after “also recorded” stand apart in the source; their conditions may differ.

Assays:
[1] = molecular target: T1, Ndom (soluble form of the N‐domain of sACE) (Homo sapiens, UniProt P12821); assay: Aβ(4–10)Y hydrolysis by Ndom, fluorogenic assay; format: biochemical
T1 construct: made in house; host or cells: CHO cells
T1 sequence (P12821 30-658): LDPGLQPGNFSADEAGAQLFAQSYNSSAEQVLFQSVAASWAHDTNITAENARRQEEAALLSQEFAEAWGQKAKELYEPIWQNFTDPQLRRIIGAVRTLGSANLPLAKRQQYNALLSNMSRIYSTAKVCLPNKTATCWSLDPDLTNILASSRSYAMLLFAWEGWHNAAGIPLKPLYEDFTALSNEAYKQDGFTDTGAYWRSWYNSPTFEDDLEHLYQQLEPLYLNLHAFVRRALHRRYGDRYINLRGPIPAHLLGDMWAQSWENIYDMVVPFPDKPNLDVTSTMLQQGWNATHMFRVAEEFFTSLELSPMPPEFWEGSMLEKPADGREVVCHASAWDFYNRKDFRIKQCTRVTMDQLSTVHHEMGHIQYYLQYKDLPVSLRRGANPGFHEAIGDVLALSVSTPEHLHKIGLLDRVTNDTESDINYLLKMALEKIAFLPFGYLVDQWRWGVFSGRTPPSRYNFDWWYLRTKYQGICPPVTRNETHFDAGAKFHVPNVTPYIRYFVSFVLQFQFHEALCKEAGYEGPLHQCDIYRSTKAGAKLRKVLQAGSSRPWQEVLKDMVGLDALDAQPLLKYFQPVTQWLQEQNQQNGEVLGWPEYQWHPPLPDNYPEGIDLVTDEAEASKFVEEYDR
Description: (§1) Fluorogenic substrates designed around the established N‐terminal Asp7‐Ser8 cleavage site of the full‐length Aβ(1–42) were used to develop a higher throughput assay. There are two variations of the short fluorogenic peptides: Aβ(4–10)Q (Abz‐FRHDSG(Q)‐EDDnp) which has an N‐terminal Abz donor and a C‐terminal EDDnp quencher group attached to an additional Gln residue. The second peptide, Aβ(4–10)Y (Abz‐FRHDSG‐(NT)) has a different quencher molecule, NT, which substitutes for the naturally occurring Tyr residue.
(§2) An alternative fluorogenic peptide, Abz‐FRHDSG‐(NT) (BIOPEP™ South Africa) was assayed, with 100 μL enzyme and 100 μL substrate (at a final enzyme concentration within 10% hydrolysis of total substrate; see Table 3) as above, in 96‐well plates. The samples were read at the 5 min time point on a Cary Eclipse spectrofluorimeter (Varian Inc.) at λex = 320 nm and λem = 420 nm. Kinetic constants, inner filter effect and standard curves were calculated as above.
(§3) Statistical analysis of the data was determined by Student's t test. Differences with P < 0.05 were considered statistically significant. Fractional error was calculated for the k cat/K m ratio with the following equation: ΔZ=ZΔa/a^2+Δb/b^2 where Z represents the mean k cat/K m and ΔZ represents the fractional error. The Δa represents the SEM of the mean k cat (a). Similarly, Δb represents the SEM of the mean K m (b).

[2] = molecular target: T2, N‐sACE (Homo sapiens, UniProt P12821, H988K/H992K); assay: Aβ(4–10)Y hydrolysis by N‐sACE, fluorogenic assay; format: biochemical; settings: fluorescence λex 320 nm, λem 420 nm, Hepes pH 7.5 buffer as for Aβ(4–10)Q, 5 min time point, enzyme 0.113 pmol, n = 3
T2 construct: Both constructs have the complete signal, transmembrane and stalk region corresponding to full‐length sACE; made in house; host or cells: CHO cells; purified from cell lysate
T2 sequence (P12821 30-1306 H988K/H992K): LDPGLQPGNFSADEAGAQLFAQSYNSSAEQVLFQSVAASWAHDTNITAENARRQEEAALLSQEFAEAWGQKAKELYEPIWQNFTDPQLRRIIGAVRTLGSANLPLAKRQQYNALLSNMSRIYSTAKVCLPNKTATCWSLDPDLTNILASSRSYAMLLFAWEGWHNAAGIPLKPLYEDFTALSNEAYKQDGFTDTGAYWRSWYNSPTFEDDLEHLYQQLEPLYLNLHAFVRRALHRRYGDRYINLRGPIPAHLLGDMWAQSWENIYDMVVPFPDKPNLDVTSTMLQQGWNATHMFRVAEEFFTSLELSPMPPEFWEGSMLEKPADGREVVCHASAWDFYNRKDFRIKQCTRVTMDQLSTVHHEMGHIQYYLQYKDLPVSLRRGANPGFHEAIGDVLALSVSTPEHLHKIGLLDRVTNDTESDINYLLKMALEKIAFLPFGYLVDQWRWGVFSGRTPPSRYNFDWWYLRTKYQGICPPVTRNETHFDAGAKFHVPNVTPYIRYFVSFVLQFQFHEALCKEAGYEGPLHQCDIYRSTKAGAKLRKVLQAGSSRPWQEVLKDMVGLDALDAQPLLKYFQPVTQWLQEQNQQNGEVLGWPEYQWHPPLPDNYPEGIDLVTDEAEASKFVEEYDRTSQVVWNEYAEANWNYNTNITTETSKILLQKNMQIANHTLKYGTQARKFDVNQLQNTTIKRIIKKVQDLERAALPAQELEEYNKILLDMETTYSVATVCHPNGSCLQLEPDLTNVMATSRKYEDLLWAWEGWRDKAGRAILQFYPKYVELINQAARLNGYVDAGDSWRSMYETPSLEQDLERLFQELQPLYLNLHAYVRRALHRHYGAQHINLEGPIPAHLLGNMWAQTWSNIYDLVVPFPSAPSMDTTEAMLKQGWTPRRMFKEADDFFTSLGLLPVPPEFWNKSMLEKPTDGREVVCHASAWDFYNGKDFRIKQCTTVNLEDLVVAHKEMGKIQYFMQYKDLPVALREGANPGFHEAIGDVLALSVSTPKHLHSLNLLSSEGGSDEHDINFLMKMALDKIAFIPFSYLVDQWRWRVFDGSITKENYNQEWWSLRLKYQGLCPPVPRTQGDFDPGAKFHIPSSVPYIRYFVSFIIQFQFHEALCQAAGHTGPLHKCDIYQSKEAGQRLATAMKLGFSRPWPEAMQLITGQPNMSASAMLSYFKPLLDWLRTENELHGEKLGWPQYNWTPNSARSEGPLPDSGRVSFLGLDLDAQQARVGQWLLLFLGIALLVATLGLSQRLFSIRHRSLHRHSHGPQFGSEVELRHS
Description: as §1, §2, §3

[3] = molecular target: T3, C‐sACE (Homo sapiens, UniProt P12821, H390K/H394K); assay: Aβ(4–10)Y hydrolysis by C‐sACE, fluorogenic assay; format: biochemical
T3 construct: Both constructs have the complete signal, transmembrane and stalk region corresponding to full‐length sACE; made in house; host or cells: CHO cells; purified from cell lysate
T3 sequence (P12821 30-1306 H390K/H394K): as the sequence (P12821 30-1306 H988K/H992K) above, with H361K, H365K, K959H, K963H counted along it
Description: as §1, §2, §3

[4] = test system: CC‐sACE; assay: Aβ(4–10)Y hydrolysis by CC‐sACE, fluorogenic assay; format: biochemical, human; settings: fluorescence λex 320 nm, λem 420 nm, Hepes pH 7.5 buffer as for Aβ(4–10)Q, 5 min time point, enzyme 0.071 pmol, n = 3
Chain of CC‐sACE (P12821 643-1222 limits assumed): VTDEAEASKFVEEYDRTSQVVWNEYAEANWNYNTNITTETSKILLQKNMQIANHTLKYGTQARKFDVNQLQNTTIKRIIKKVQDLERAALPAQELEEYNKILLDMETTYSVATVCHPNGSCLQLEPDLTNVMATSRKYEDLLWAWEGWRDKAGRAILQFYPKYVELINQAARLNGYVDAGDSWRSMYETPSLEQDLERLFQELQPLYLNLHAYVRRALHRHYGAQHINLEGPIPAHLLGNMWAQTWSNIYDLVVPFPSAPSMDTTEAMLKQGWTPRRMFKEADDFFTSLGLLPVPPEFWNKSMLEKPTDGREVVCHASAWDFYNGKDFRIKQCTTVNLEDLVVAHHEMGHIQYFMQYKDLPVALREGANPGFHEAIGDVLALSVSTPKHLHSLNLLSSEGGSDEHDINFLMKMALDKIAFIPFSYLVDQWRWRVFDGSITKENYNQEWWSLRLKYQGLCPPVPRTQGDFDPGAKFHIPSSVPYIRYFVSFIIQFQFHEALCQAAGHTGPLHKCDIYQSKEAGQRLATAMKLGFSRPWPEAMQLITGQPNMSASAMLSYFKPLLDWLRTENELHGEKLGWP
Description: as §1, §2, §3

[5] = molecular target: T4, Cdom (soluble form of the C‐domain of sACE) (Homo sapiens, UniProt P12821); assay: Aβ(4–10)Y hydrolysis by Cdom, fluorogenic assay; format: biochemical; settings: fluorescence λex 320 nm, λem 420 nm, Hepes pH 7.5 buffer as for Aβ(4–10)Q, 5 min time point, enzyme 0.835 pmol, n = 3
T4 construct: lacks the transmembrane region and unique 36 amino acid N terminus (and is therefore identical to the sACE C‐domain); made in house; host or cells: CHO cells
T4 sequence (P12821 643-1222 limits assumed): as above
Description: as §1, §2, §3

[6] = test system: ACE variants; assay: Cleavage‐site analysis by MALDI‐TOF MS, kinetic assay conditions; format: biochemical, human; settings: MALDI‐TOF MS of products within kinetic assay conditions; Aβ(1–16): all ACE variants except Cdom; Aβ(4–10) peptides: Cdom and CC‐sACE not analysed
Experimental: The mass spectrometry was analysed at the Centre for Proteomic and Genomic Research (Cape Town, South Africa). Briefly, the collected peptides were spotted onto a 10 mg·mL^−1 α‐cyano‐4‐hydroxycinnamic acid matrix (Fluka, USA) in 80% ACN, 0.2% TFA for a final concentration of 5 mg·mL^−1 matrix in 40% ACN, 0.1% TFA, 10 mM NH4H2PO4. Mass spectrometry was performed with a 4800 MALDI‐TOF/TOF (Applied Biosytems) with all spectra recorded in positive reflector mode. Spectra were generated with 400 laser shots/spectrum at a laser intensity of 3800 (arbitrary units) with a grid voltage of 16 kV.

[7] = molecular target: T5, sACE (Homo sapiens, UniProt P12821); assay: Interdomain cooperativity in hydrolysis of Aβ substrates; format: biochemical
T5 construct: made in house; host or cells: CHO cells; purified from cell lysate
T5 sequence (P12821 30-1306): as the sequence (P12821 30-1306 H988K/H992K) above, with K959H, K963H counted along it
Experimental: Mixtures were separated on a Poroshell 120 EC‐18 column with a 2.7 μm pore size. The reaction consists of 25 μL substrate incubated with 25 μL enzyme for 15 min at 37 °C and was stopped with the addition of 10 μL of 0.25% trifluoroacetic acid (TFA). The total reaction (60 μL) was cleared of contaminants on a spin column (GHP Nanosep® MF Centrifugal Device 0.45 μm pore size) and run on the HPLC. Kinetic parameters were determined through the fitting of initial rates to the Michaelis–Menten equation with […] PRISM software (v 4.01, GraphPad Prism®).
The reaction was incubated for 15 min at 37 °C and stopped with the addition of 10 μL 0.25% TFA to make up a total volume of 60 μL. The reactions were performed in triplicate and 50 μL injections were analysed via HPLC (Agilent Technologies) across a gradient of 0.1% TFA and 2% ACN in water to 0.1% TFA, 95% ACN. A calibration curve was set up to convert the product peak area to picomoles product formed, through the complete hydrolysis of the substrate with the N‐domain. […] Kinetic constants were calculated using the Michaelis–Menten method using […] […]
The assay is a modified form of the continuous assay 7 where the assay is set up on ice in triplicate in a 96‐well plate. The baseline fluorescence was at time zero and then the substrate was incubated at 37 °C and fluorescence read at the 45 min time point on a Cary Eclipse spectrofluorimeter (Varian Inc.) at λex = 320 nm and λem = 420 nm. Again, kinetic constants were calculated using the Michaelis–Menten method with […] […] The detected fluorescence was converted to picamoles product formed through the slope of a calibration curve of Abz‐Gly. […]
as §2

[8] = fluorescence λex 320 nm, λem 420 nm, Hepes pH 7.5 buffer as for Aβ(4–10)Q, 5 min time point, enzyme 0.228 pmol, mean ± SEM, n = 3
[9] = mean ± fractional error of the ratio
[10] = fluorescence λex 320 nm, λem 420 nm, Hepes pH 7.5 buffer as for Aβ(4–10)Q, 5 min time point, enzyme 0.226 pmol, mean ± SEM, n = 3

## Abz‐FRHDSG‐(NT) [Aβ(4–10)Y, fluorogenic Aβ(4–10) peptide with NT quencher substituting for Tyr]
[1]; […] 10^5 versus […] 10^5 M^−1·s^−1
  catalytic efficiency by Ndom relative to Aβ(1–16): half the catalytic efficiency
[1]; [8]
  K m: 21.20 ± 0.31 µM
  V max: 4.62 ± 0.14
  k cat: 20.30 ± 0.62 s⁻¹
[1]; fluorescence λex 320 nm, λem 420 nm, Hepes pH 7.5 buffer as for Aβ(4–10)Q, 5 min time point, enzyme 0.228 pmol, mean ± fractional error of the ratio, n = 3
  k cat/K m: 9.57 M^−1·s^−1 × 10^5 and 9.57 ± 0.33 M^−1·s^−1 × 10^5
[2]; mean ± SEM
  K m: 8.56 ± 0.83 µM
  V max: 0.44 ± 0.01
  k cat: 3.87 ± 0.09 s⁻¹
[2]; [9]
  k cat/K m: 4.61 ± 0.46 M^−1·s^−1 × 10^5
[3]; C‐sACE versus active N‐domain counterpart, P < 0.05
  C‐sACE K m, fold larger than its active N‐domain counterpart: 2 fold
[3]; [10]
  K m: 38.10 ± 0.10 µM
  V max: 1.57 ± 0.09
  k cat: 6.95 ± 1.39 s⁻¹
[3]; fluorescence λex 320 nm, λem 420 nm, Hepes pH 7.5 buffer as for Aβ(4–10)Q, 5 min time point, enzyme 0.226 pmol, mean ± fractional error of the ratio, n = 3
  k cat/K m: 1.83 ± 0.18 M^−1·s^−1 × 10^5
[4]; mean ± SEM
  K m: 20.30 ± 2.55 µM
  V max: 0.90 ± 0.08
  k cat: 12.70 ± 1.16 s⁻¹
[4]; [9]
  k cat/K m: 6.33 ± 0.98 M^−1·s^−1 × 10^5
[5]; mean ± SEM
  K m: 27.23 ± 9.52 µM
  V max: 4.45 ± 0.63
  k cat: 5.33 ± 0.76 s⁻¹
[5]; [9]
  k cat/K m: 2.30 ± 0.87 M^−1·s^−1 × 10^5
[6]
  cleavage site (bond): Asp7‐Ser8
[7]; examination of the N‐sACE and C‐sACE constructs
  interdomain cooperativity, full‐length constructs: positive domain cooperativity; also recorded: a positive form of cooperativity
[7]; truncated domains versus sACE
  interdomain cooperativity, truncated domains taken into account: a negative effect on the activity of sACE
